Columns and labels:
[1] = tested on: HEK293 cells; assay: Preliminary screening as mRNA vectors, EGFP mRNA transfection of HEK293 cells; type: cell-based; settings: 96-well plates, EGFP mRNA 50 ng per well, percentage of GFP fluorescent cells relative to total number of cells (Hoechst)
Summary of the method: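 HEK293 cells in DMEM plus 10% FBS transfected in 96-well format with 50 ng EGFP mRNA per well; Lipofectamine2000 served as positive control. Read-out is the percentage of GFP-fluorescent cells among total cells, counted by Hoechst nuclear stain.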

[2] = tested on: HEK293 cells; assay: Preliminary screening as DNA vectors, GFP transfection of HEK293 cells; type: cell-based; settings: HEK293 cells; lipid/DOPE liposome with 75 ng plasmid DNA (psin-EGFP-IRES-Puro); number of cells expressing GFP divided by total number of nuclei (Hoechst)
Summary of the method: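 HEK293 cells in DMEM/10% FBS transfected with 75 ng EGFP plasmid per well complexed with amino lipid/DOPE liposomes in pH 5.6 sodium acetate. Hoechst nuclear stain added 20-24 h post-transfection, then cells cultured another 20-24 h. Confocal imaging gives GFP-positive cells as % of total nuclei.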

Structure (SMILES)	Absolute mRNA transfection efficiency in HEK293 cells ([1]; HEK293 cells) [%]	Absolute DNA transfection efficiency in HEK293 cells [2] [%]	Absolute mRNA transfection efficiency in HEK293 cells [1] [%]
CCCCCCCCCCCCN(CCCCCCCCCCCC)c1nc(NCCN(C)C)nc(N(CCCCCCCCCCCC)CCCCCCCCCCCC)n1 [2N12^2N12D1]	0.1	0.4	
CCCCCCCCCCCCN(CCCCCCCCCCCC)c1nc(NCCN2CCOCC2)nc(N(CCCCCCCCCCCC)CCCCCCCCCCCC)n1 [2N12^2N12D2]	1.9	0.0	
CCCCCCCCCCCCN(CCCCCCCCCCCC)c1nc(NCCN2CCCC2)nc(N(CCCCCCCCCCCC)CCCCCCCCCCCC)n1 [2N12^2N12D3]	0.0	1.3	
CCCCCCCCCCCCN(CCCCCCCCCCCC)c1nc(NCCN2CCCCC2)nc(N(CCCCCCCCCCCC)CCCCCCCCCCCC)n1 [2N12^2N12D4]	2.6	0.0	
CCCCCCCCCCCCN(CCCCCCCCCCCC)c1nc(NCCN2CCN(C)CC2)nc(N(CCCCCCCCCCCC)CCCCCCCCCCCC)n1 [2N12^2N12D5]	2.7	0.0	
CCCCCCCCCCCCN(CCCCCCCCCCCC)c1nc(NCCCN(C)C)nc(N(CCCCCCCCCCCC)CCCCCCCCCCCC)n1 [2N12^2N12D6]	0.2	0.0	
CCCCCCCCCCCCN(CCCCCCCCCCCC)c1nc(NCCN(CC)CC)nc(N(CCCCCCCCCCCC)CCCCCCCCCCCC)n1 [2N12^2N12D7]	0.3	0.0	
CCCCCCCCCCCCN(CCCCCCCCCCCC)c1nc(NCCCN2CCOCC2)nc(N(CCCCCCCCCCCC)CCCCCCCCCCCC)n1 [2N12^2N12D8]	0.0	0.1	
CCCCCCCCCCCCN(CCCCCCCCCCCC)c1nc(NCCCN2CCN(C)CC2)nc(N(CCCCCCCCCCCC)CCCCCCCCCCCC)n1 [2N12^2N12D9]	0.0	0.2	
CCCCCCCCCCCCN(CCCCCCCCCCCC)c1nc(NCC2CCN(C)CC2)nc(N(CCCCCCCCCCCC)CCCCCCCCCCCC)n1 [2N12^2N12D10]	3.3	1.8	
CCCCCCNc1nc(NCCCCCC)nc(NCCN(C)C)n1 [Compound N6N6D1]	0.0	0.0	
CCCCCCNc1nc(NCCCCCC)nc(NCCN2CCOCC2)n1 [Compound N6N6D2]	0.0	0.0	
CCCCCCNc1nc(NCCCCCC)nc(NCCN2CCCC2)n1 [Compound N6N6D3]	0.3	0.2	
CCCCCCNc1nc(NCCCCCC)nc(NCCN2CCCCC2)n1 [Compound N6N6D4]	0.1	0.0	
CCCCCCNc1nc(NCCCCCC)nc(NCCN2CCN(C)CC2)n1 [Compound N6N6D5]	0.0	0.0	
CCCCCCNc1nc(NCCCCCC)nc(NCCCN(C)C)n1 [Compound N6N6D6]	0.0	0.0	
CCCCCCNc1nc(NCCCCCC)nc(NCCN(CC)CC)n1 [Compound N6N6D7]	0.0	0.0	
CCCCCCNc1nc(NCCCCCC)nc(NCCCN2CCOCC2)n1 [Compound N6N6D8]	0.0	0.0	
CCCCCCNc1nc(NCCCCCC)nc(NCCCN2CCN(C)CC2)n1 [Compound N6N6D9]	0.2	0.0	
CCCCCCNc1nc(NCCCCCC)nc(NCC2CCN(C)CC2)n1 [Compound N6N6D10]	0.0	0.0	
CCCCCCCNc1nc(NCCCCCC)nc(NCCN(C)C)n1 [Compound N6N7D1]	0.1	0.0	
CCCCCCCNc1nc(NCCCCCC)nc(NCCN2CCOCC2)n1 [Compound N6N7D2]	0.4	0.0	

Structure (SMILES)	Absolute mRNA transfection efficiency in HEK293 cells ([1]; HEK293 cells) [%]	Absolute DNA transfection efficiency in HEK293 cells [2] [%]	Absolute mRNA transfection efficiency in HEK293 cells [1] [%]
CCCCCCCNc1nc(NCCCCCC)nc(NCCN2CCCC2)n1 [Compound N6N7D3]	0.0	0.4	
CCCCCCCNc1nc(NCCCCCC)nc(NCCN2CCCCC2)n1 [Compound N6N7D4]	0.0	0.0	
CCCCCCCNc1nc(NCCCCCC)nc(NCCN2CCN(C)CC2)n1 [Compound N6N7D5]	0.4	0.0	
CCCCCCCNc1nc(NCCCCCC)nc(NCCCN(C)C)n1 [Compound N6N7D6]	0.1	0.0	
CCCCCCCNc1nc(NCCCCCC)nc(NCCN(CC)CC)n1 [Compound N6N7D7]	0.0	0.0	
CCCCCCCNc1nc(NCCCCCC)nc(NCCCN2CCOCC2)n1 [Compound N6N7D8]	0.0	0.0	
CCCCCCCNc1nc(NCCCCCC)nc(NCCCN2CCN(C)CC2)n1 [Compound N6N7D9]	0.0	0.0	
CCCCCCCNc1nc(NCCCCCC)nc(NCC2CCN(C)CC2)n1 [Compound N6N7D10]	0.0	0.0	
CCCCCCCCNc1nc(NCCCCCC)nc(NCCN(C)C)n1 [Compound N6N8D1]	0.0	0.0	
CCCCCCCCNc1nc(NCCCCCC)nc(NCCN2CCOCC2)n1 [Compound N6N8D2]	0.1	0.0	
CCCCCCCCNc1nc(NCCCCCC)nc(NCCN2CCCC2)n1 [Compound N6N8D3]	0.4	0.1	
CCCCCCCCNc1nc(NCCCCCC)nc(NCCN2CCCCC2)n1 [Compound N6N8D4]	0.0	0.0	
CCCCCCCCNc1nc(NCCCCCC)nc(NCCN2CCN(C)CC2)n1 [Compound N6N8D5]	0.0	0.0	
CCCCCCCCNc1nc(NCCCCCC)nc(NCCCN(C)C)n1 [Compound N6N8D6]	0.0	0.1	
CCCCCCCCNc1nc(NCCCCCC)nc(NCCN(CC)CC)n1 [Compound N6N8D7]	0.1	0.0	
CCCCCCCCNc1nc(NCCCCCC)nc(NCCCN2CCOCC2)n1 [Compound N6N8D8]	0.0	0.0	
CCCCCCCCNc1nc(NCCCCCC)nc(NCCCN2CCN(C)CC2)n1 [Compound N6N8D9]	0.0	0.0	
CCCCCCCCCCCCSc1nc(NCC2CCN(C)CC2)nc(N(CCCCCCCCCCCC)CCCCCCCCCCCC)n1 [D10S12^2N12]			3.4
CCCCCCCCCCCCCCSc1nc(NCC2CCN(C)CC2)nc(N(CCCCCCCCCCCC)CCCCCCCCCCCC)n1 [D10S14^2N12]			0.2
CCCCCCCCCCCCCCCSc1nc(NCC2CCN(C)CC2)nc(N(CCCCCCCCCCCC)CCCCCCCCCCCC)n1 [D10S15^2N12]			14.3
CCCCCCCCCCCCCCCCSc1nc(NCC2CCN(C)CC2)nc(N(CCCCCCCCCCCC)CCCCCCCCCCCC)n1 [D10S16^2N12]			0.2
CCCCCCCCCCCCCCCCCCSc1nc(NCC2CCN(C)CC2)nc(N(CCCCCCCCCCCC)CCCCCCCCCCCC)n1 [D10S18^2N12]			0.0
